One test has as its target hOx2R (Homo sapiens (Human), UniProt O43614). The experiment in a line: Calcium accumulation in cells (FLIPR), hOx2R. The test is classed as cell-based. As to conditions: for Ki: inhibition of orexin A induced calcium accumulation, Cheng and Prusoff correction; for inhibition at 10 µM: measured at a concentration of 10 μM of compound. As to the method: (§1) Calcium Accumulation in Cells (FLIPR):
(§2) Cells expressing human orexin 1 or human orexin 2 receptors, were seeded at 8,000 cells/well in 384 well black-walled clear bottom, poly-D-lysine coated plates. After 24 h, the medium was removed and cells were washed once with phosphate buffered saline and serum-deprived overnight in assay buffer (130 mM NaCl, 5.4 mM KCl, 1.8 mM CaCl2, 0.8 mM MgSO4, 0.9 mM NaH2PO4, 25 mM glucose, 20 mM HEPES, pH 7.4) containing bovine serum albumin (1% w/v).
(§3) On the day of the experiment, the cells seeded in black plates were treated with assay buffer containing the Ca^2+ sensitive fluorescent dye Fluo-4-AM (2 μM), and probenecid (0.1 mM). After 1 h plates were washed twice with, and resuspended in, assay buffer containing probenecid (0.1 mM) using a multi plate washer. […] Fluorescence measurements were then continued every 1 S for 120 S followed by every 4 S for 240 S.
(§4) The measurements were typically made in two sequences:
(§5) Compounds of formula I were tested usually in a concentration range from 10^−9 M to 10^−5 M.
(§6) In the second round, performed one hour later (to allow for equilibration), Orexin A was tested either in the absence (calibration curves, Orexin A agonist controls) or in the presence of compounds of formula I to determine antagonism.

Another test addresses hOx1R (Homo sapiens (Human), UniProt O43613). The experiment in a line: Calcium accumulation in cells (FLIPR), hOx1R. The test is classed as cell-based. The conditions noted are these: for Ki: inhibition of orexin A induced calcium accumulation, Cheng and Prusoff correction; for inhibition at 10 µM: measured at a concentration of 10 μM of compound. The procedure:
as §1, §2, §3, §4, §5, §6

By Ki is commonly meant the equilibrium dissociation constant of an inhibitor or competing ligand from its target. As a reminder, the inhibition is the share of the control response that was lost under treatment.

Where only a bound is given, the exact number is not on record here.

hOx2R, sequence (O43614 whole entry): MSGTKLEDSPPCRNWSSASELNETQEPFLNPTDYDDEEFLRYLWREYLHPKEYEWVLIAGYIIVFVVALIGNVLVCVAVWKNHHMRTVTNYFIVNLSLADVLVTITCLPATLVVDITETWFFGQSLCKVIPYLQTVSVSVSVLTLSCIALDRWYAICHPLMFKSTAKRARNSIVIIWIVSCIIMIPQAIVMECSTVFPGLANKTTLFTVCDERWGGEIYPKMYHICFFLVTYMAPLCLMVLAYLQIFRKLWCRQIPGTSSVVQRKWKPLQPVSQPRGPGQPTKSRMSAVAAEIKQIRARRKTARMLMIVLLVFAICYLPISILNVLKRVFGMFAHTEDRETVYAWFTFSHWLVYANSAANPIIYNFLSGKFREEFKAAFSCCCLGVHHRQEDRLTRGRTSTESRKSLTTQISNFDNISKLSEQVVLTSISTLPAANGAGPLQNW
hOx1R, sequence (O43613 whole entry): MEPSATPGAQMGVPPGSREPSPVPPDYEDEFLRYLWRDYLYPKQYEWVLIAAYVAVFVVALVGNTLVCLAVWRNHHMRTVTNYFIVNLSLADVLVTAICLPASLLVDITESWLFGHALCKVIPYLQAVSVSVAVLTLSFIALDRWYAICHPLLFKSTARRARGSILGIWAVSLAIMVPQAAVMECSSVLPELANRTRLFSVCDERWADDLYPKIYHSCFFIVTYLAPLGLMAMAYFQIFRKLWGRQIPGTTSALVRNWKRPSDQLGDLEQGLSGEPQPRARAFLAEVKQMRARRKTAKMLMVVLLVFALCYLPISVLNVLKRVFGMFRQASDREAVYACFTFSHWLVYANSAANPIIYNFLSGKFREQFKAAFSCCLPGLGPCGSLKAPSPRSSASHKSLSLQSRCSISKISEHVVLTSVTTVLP

Consider `N#Cc1cccc(CN2CCCC3(CCN(c4cnc5ccccc5n4)CC3)C2=O)c1` [Example 92, 3-((1-oxo-9-(quinoxalin-2-yl)-2,9-diazaspiro[5.5]undecan-2-yl)methyl)benzonitrile], for which the Ki was 649 nM at hOx2R and 3060 nM at hOx1R.
With `Cc1ccc2[nH]c(N3CCC4(CCCN(Cc5c[nH]c6ccccc56)C4=O)CC3)nc2c1` [Example 163, 2-((1H-indol-3-yl)methyl)-9-(5-methyl-1H-benzo[d]imidazol-2-yl)-2,9-diazaspiro[5.5]undecan-1-one], the Ki at hOx2R was 483 nM. At hOx1R, the inhibition at 10 µM worked out at 23%.
On to `O=C1N(Cc2c[nH]c3ccccc23)CCCC12CCN(c1nc3ccccc3o1)CC2` [Example 40, 2-((1H-indol-3-yl)methyl)-9-(benzo[d]oxazol-2-yl)-2,9-diazaspiro[5.5]undecan-1-one], for which the results for the Ki at hOx2R and at hOx1R were 98 nM and 1020 nM, respectively.
Taken in the same sequence, the figures for `O=C1CCCC2(CCN(c3cnc4ccccc4n3)CC2)N1Cc1c[nH]c2ncccc12` [Example 141, 1-((1H-pyrrolo[2,3-b]pyridin-3-yl)methyl)-9-(quinoxalin-2-yl)-1,9-diazaspiro[5.5]undecan-2-one] were 404 nM and 1980 nM.
In the case of `Cn1nc(CN2CCCC3(CCN(c4cnc5ccccc5n4)CC3)C2=O)c2ccccc21` [Example 142, 2-((1-methyl-1H-indazol-3-yl)methyl)-9-(quinoxalin-2-yl)-2,9-diazaspiro[5.5]undecan-1-one], the Ki stood at 212 nM at hOx2R and 925 nM on hOx1R.
For `O=C1N(Cc2ccc(C(F)(F)F)nc2)CCCC12CCN(c1cnc3ccccc3n1)CC2` [Example 90, 9-(quinoxalin-2-yl)-2-((6-(trifluoromethyl)pyridin-3-yl)methyl)-2,9-diazaspiro[5.5]undecan-1-one], the inhibition at 10 µM on hOx2R amounted to 12%; on hOx1R, 17%.
Regarding `O=C1N(Cc2c[nH]c3ccccc23)CCCC12CCN(c1cc(-c3ccccc3)ncn1)CC2` [Example 165, 2-((1H-indol-3-yl)methyl)-9-(6-phenylpyrimidin-4-yl)-2,9-diazaspiro[5.5]undecan-1-one], the Ki came out at 115 nM on hOx2R and 468 nM on hOx1R.
Take `Cc1cc(CN2CCCC3(CCN(c4cnc5ccccc5n4)CC3)C2=O)nn1C` [Example 84, 2-((1,5-dimethyl-1H-pyrazol-3-yl)methyl)-9-(quinoxalin-2-yl)-2,9-diazaspiro[5.5]undecan-1-one]: the inhibition at 10 µM on hOx2R is 46%; at hOx1R, 40%.
On to `Cc1ncc(CN2CCCC3(CCN(c4cnc5ccccc5n4)CC3)C2=O)c2c1OC(C)(C)OC2` [Example 117, 9-(quinoxalin-2-yl)-2-((2,2,8-trimethyl-4H-[1,3]dioxino[4,5-c]pyridin-5-yl)methyl)-2,9-diazaspiro[5.5]undecan-1-one], for which the Ki came out at 249 nM at hOx2R and 2380 nM at hOx1R.
Regarding `Cc1oc(-c2ccoc2)nc1CN1CCCC2(CCN(c3cnc4ccccc4n3)CC2)C1=O` [Example 116, 2-((2-(furan-3-yl)-5-methyloxazol-4-yl)methyl)-9-(quinoxalin-2-yl)-2,9-diazaspiro[5.5]undecan-1-one], the inhibition at 10 µM on hOx2R turned out to be 53%. Further, on hOx1R, the Ki came to 3790 nM.
With `N#Cc1ccc(F)c(CN2CCCC3(CCN(c4cnc5ccccc5n4)CC3)C2=O)c1` [Example 99, 4-fluoro-3-((1-oxo-9-(quinoxalin-2-yl)-2,9-diazaspiro[5.5]undecan-2-yl)methyl)benzonitrile], the Ki on hOx2R was found to be 142 nM; on hOx1R it was 1100 nM.
For the compound `O=C1CCCC2(CCN(c3cnc4ccccc4n3)CC2)N1Cc1noc2ccccc12` [Example 135, 1-(benzo[d]isoxazol-3-ylmethyl)-9-(quinoxalin-2-yl)-1,9-diazaspiro[5.5]undecan-2-one], the Ki at hOx2R was determined as 185 nM; on hOx1R, 242 nM.
`O=C1N(Cc2c[nH]c3ccccc23)CCCC12CCN(c1ncnc3[nH]ccc13)CC2` [Example 155, 2-((1H-indol-3-yl)methyl)-9-(7H-pyrrolo[2,3-d]pyrimidin-4-yl)-2,9-diazaspiro[5.5]undecan-1-one]: the values for the Ki on hOx2R and at hOx1R were 239 nM and 1530 nM, respectively.
For the compound `O=C1N(Cc2cc(F)cc3c2OCOC3)CCCC12CCN(c1cnc3ccccc3n1)CC2` [Example 120, 2-((6-fluoro-4H-benzo[d][1,3]dioxin-8-yl)methyl)-9-(quinoxalin-2-yl)-2,9-diazaspiro[5.5]undecan-1-one], the Ki at hOx2R is 125 nM; at hOx1R, 700 nM.
`O=C1N(Cc2cccc(-n3cccc3)c2)CCCC12CCN(c1cnc3ccccc3n1)CC2` [Example 35, 2-(3-(1H-pyrrol-1-yl)benzyl)-9-(quinoxalin-2-yl)-2,9-diazaspiro[5.5]undecan-1-one]: on hOx2R, the Ki was found to be 272 nM. Further, the inhibition at 10 µM at hOx1R turned out to be 26%.
As to `O=C1N(Cc2c[nH]c3ccccc23)CCCC12CCN(c1nc3cc(Cl)ccc3o1)CC2` [Example 131, 2-((1H-indol-3-yl)methyl)-9-(5-chlorobenzo[d]oxazol-2-yl)-2,9-diazaspiro[5.5]undecan-1-one], the Ki on hOx2R was 524 nM. Moreover, on hOx1R, the inhibition at 10 µM worked out at 48%.
Regarding `O=C1CCCC2(CCN(c3nc4ccccc4[nH]3)CC2)N1Cc1cccc2[nH]ccc12` [Example 138, 1-((1H-indol-4-yl)methyl)-9-(1H-benzo[d]imidazol-2-yl)-1,9-diazaspiro[5.5]undecan-2-one], the Ki was 1970 nM at hOx2R and 3790 nM at hOx1R.
Take `Cc1nn(-c2ccccc2)nc1CN1CCCC2(CCN(c3cnc4ccccc4n3)CC2)C1=O` [Example 175, 2-((5-methyl-2-phenyl-2H-1,2,3-triazol-4-yl)methyl)-9-(quinoxalin-2-yl)-2,9-diazaspiro[5.5]undecan-1-one]: the inhibition at 10 µM at hOx2R is 12%; at hOx1R, less than 10%.
As for `Cn1cc(-c2ccccc2CN2CCCC3(CCN(c4cnc5ccccc5n4)CC3)C2=O)cn1` [Example 51, 2-(2-(1-methyl-1H-pyrazol-4-yl)benzyl)-9-(quinoxalin-2-yl)-2,9-diazaspiro[5.5]undecan-1-one], the inhibition at 10 µM was found to be 32% on hOx2R and 57% on hOx1R.
Take `O=C1N(Cc2cc(=O)[nH]c3ccccc23)CCCC12CCN(c1cnc3ccccc3n1)CC2` [Example 96, 4-((1-oxo-9-(quinoxalin-2-yl)-2,9-diazaspiro[5.5]undecan-2-yl)methyl)quinolin-2(1H)-one]: the Ki worked out at 631 nM on hOx2R and 2400 nM at hOx1R.
Consider `Cc1cc(CN2CCCC3(CCN(c4cnc5ccccc5n4)CC3)C2=O)on1` [Example 105, 2-((3-methylisoxazol-5-yl)methyl)-9-(quinoxalin-2-yl)-2,9-diazaspiro[5.5]undecan-1-one], for which, at hOx2R, the Ki came out at 1380 nM. Moreover, the inhibition at 10 µM on hOx1R is 47%.
Consider `Cn1ncc2c(CN3CCCC4(CCN(c5cnc6ccccc6n5)CC4)C3=O)cccc21` [Example 108, 2-((1-methyl-1H-indazol-4-yl)methyl)-9-(quinoxalin-2-yl)-2,9-diazaspiro[5.5]undecan-1-one], for which the Ki on hOx2R stood at 196 nM; on hOx1R it was 1400 nM.
On to `Cc1nc2ccccc2nc1N1CCC2(CCCN(Cc3c[nH]c4ccccc34)C2=O)CC1` [Example 170, 2-((1H-indol-3-yl)methyl)-9-(3-methylquinoxalin-2-yl)-2,9-diazaspiro[5.5]undecan-1-one], for which the Ki was 535 nM at hOx2R and 1810 nM on hOx1R.
Turning to `Cc1cc(CN2CCCC3(CCN(c4cnc5ccccc5n4)CC3)C2=O)ccn1` [Example 68, 2-((2-methylpyridin-4-yl)methyl)-9-(quinoxalin-2-yl)-2,9-diazaspiro[5.5]undecan-1-one], on hOx2R, the Ki turned out to be 830 nM. In addition, at hOx1R, the inhibition at 10 µM was 29%.
Take `O=C1N(Cc2cncn2-c2ccccc2)CCCC12CCN(c1cnc3ccccc3n1)CC2` [Example 110, 2-((1-phenyl-1H-imidazol-5-yl)methyl)-9-(quinoxalin-2-yl)-2,9-diazaspiro[5.5]undecan-1-one]: the Ki at hOx2R was found to be 945 nM; on hOx1R, 4210 nM.
As for `O=C1N(Cc2c[nH]c3ccccc23)CCCC12CCN(c1cnc3nccnc3c1)CC2` [Example 146, 2-((1H-indol-3-yl)methyl)-9-(pyrido[3,2-b]pyrazin-7-yl)-2,9-diazaspiro[5.5]undecan-1-one], the Ki at hOx2R is 621 nM. Moreover, at hOx1R, the inhibition at 10 µM worked out at 29%.
`Cc1nnc(-c2ccc(CN3CCCC4(CCN(c5cnc6ccccc6n5)CC4)C3=O)cc2)o1` [Example 109, 2-(4-(5-methyl-1,3,4-oxadiazol-2-yl)benzyl)-9-(quinoxalin-2-yl)-2,9-diazaspiro[5.5]undecan-1-one]: the inhibition constant (Ki) at hOx2R amounted to 1240 nM; at hOx1R it was 3140 nM.
Regarding `O=C1N(Cc2c[nH]c3ccccc23)CCCC12CCN(c1nccc(-c3ccccc3)n1)CC2` [Example 154, 2-((1H-indol-3-yl)methyl)-9-(4-phenylpyrimidin-2-yl)-2,9-diazaspiro[5.5]undecan-1-one], the Ki was 115 nM on hOx2R and 646 nM at hOx1R.
`O=C1N(Cc2cccc3cnccc23)CCCC12CCN(c1cnc3ccccc3n1)CC2` [Example 55, 2-(isoquinolin-5-ylmethyl)-9-(quinoxalin-2-yl)-2,9-diazaspiro[5.5]undecan-1-one]: the Ki at hOx2R amounted to 151 nM; on hOx1R, 932 nM.
